Laboratory results as given in US4874760A, “4,7-dihydroisothiazolo(5,4-b)pyridine derivatives and cardiovascular treating agents containing said derivatives” (Toa Eiyo, Ltd., priority 1987, dated 1989).
Read-outs that look alike come from different tables or passages of the source.

Experiments:
[1] = system: systolic blood pressure, spontaneously hypertensive rats; assay: Antihypertensive activity test; format: in vivo, rat (male spontaneously hypertensive); settings: oral
Excerpt: Variations in systolic blood pressure were periodically measured by a programmed electrosphygmomanometer-type blood pressure measuring device (NARCO, PE-300).

[2] = system: KCl-induced contraction of helical blood vessel specimen (artery); assay: Test on calcium antagonizing activity (KCl-induced contraction of helical blood vessel specimen); design: species or system rabbit; settings: contraction height at 40 mM KCl taken as 100%, 10 minutes after test compound, 37° C., read-out: ED50 (concentration which inhibits the contraction height of the control to an extent of 50%)
Method: Female and male rabbits weighing 2 to 3 kg were used. They were anesthetized by intravenous injection of pentobarbital sodium, and sacrificed by bleeding from the femoral arteries. Immediately then, the artery was extracted from the chest, and a helical blood vessel specimen was prepared.

Compound	IC50 ([2]; 10 min)	IC50 ([2]; Oryctolagus cuniculus, 10 min)	IC50 [2]	Systolic blood pressure (maximum variation) ([1]; 1 mg/kg)	Systolic blood pressure (maximum variation) ([1]; 3 mg/kg)	Systolic blood pressure (maximum variation) ([1]; 10 mg/kg)	Systolic blood pressure (maximum variation) ([1]; 30 mg/kg)
CC1=C(C(=O)OCCN(C)Cc2ccccc2)C(c2cccc([N+](=O)[O-])c2)c2c(CN3CCN(c4ccc(F)cc4)CC3)nsc2N1 (centres unmarked) [Id, 2-(N-benzyl-N-methylamino)ethyl 3-[4-(4-fluorophenyl)-1-piperazinylmethyl]-6-methyl-4-(3-nitrophenyl)-4,7-dihydroisothiazolo[5,4-b]pyridine-5-carboxylate]	–	> 300 nM	–	-30 mmHg	-65 mmHg	-132 mmHg	-142 mmHg
COc1ccc(CCN(C)Cc2nsc3c2C(c2cccc([N+](=O)[O-])c2)C(C(=O)OCCN(C)Cc2ccccc2)=C(C)N3)cc1OC (centres unmarked) [Ic, 2-(N-benzyl-N-methylamino)ethyl 3-[N-(2-(3,4-dimethoxyphenyl)ethyl)-N-methylaminomethyl]-6-methyl-4-(3-nitrophenyl)-4,7-dihydroisothiazolo[5,4-b]pyridine-5-carboxylate]	–	225 nM	–	–	-37 mmHg	-92 mmHg	-135 mmHg
COC(=O)C1=C(C)NC(C)=C(C(=O)OC)C1c1ccccc1[N+](=O)[O-] [Nifedipine, reference compound]	–	19.6 nM	–	-29 mmHg	-42 mmHg	-71 mmHg	–
CCOC(=O)C1=C(C)Nc2snc(CN(C)CCCOc3cccc(OC)c3)c2C1c1cccc([N+](=O)[O-])c1 (centres unmarked) [Ib, ethyl 3-[N-(3-(3-methoxyphenoxy)propyl)-N-methylaminomethyl]-6-methyl-4-(3-nitrophenyl)-4,7-dihydroisothiazolo[5,4-b]pyridine-5-carboxylate]	–	62 nM	–	–	-30 mmHg	-76 mmHg	-108 mmHg
CCOC(=O)C1=C(C)Nc2snc(CN(C)CCc3ccc(OC)c(OC)c3)c2C1c1cccc([N+](=O)[O-])c1 (centres unmarked) [Ia, ethyl 3-[N-(2-(3,4-dimethoxyphenyl)ethyl)-N-methylaminomethyl]-6-methyl-4-(3-nitrophenyl)-4,7-dihydroisothiazolo[5,4-b]pyridine-5-carboxylate]	–	60 nM	–	-6 mmHg	-26 mmHg	-82 mmHg	-119 mmHg

Second part, led by results:

IC50 ([2]; 10 min)	IC50 ([2]; Oryctolagus cuniculus, 10 min)	IC50 [2]	Compound	Systolic blood pressure (maximum variation) ([1]; 1 mg/kg)	Systolic blood pressure (maximum variation) ([1]; 3 mg/kg)	Systolic blood pressure (maximum variation) ([1]; 10 mg/kg)	Systolic blood pressure (maximum variation) ([1]; 30 mg/kg)
25 nM	–	–	CCOC(=O)C1=C(C)Nc2snc(CCN3CCN(c4ccccc4)CC3)c2C1c1cccc([N+](=O)[O-])c1 (single isomer, unassigned; (-)) [Ih, (-)-ethyl 3-[2-(4-phenyl-1-piperazinyl)ethyl]-6-methyl-4-(3-nitrophenyl)-4,7-dihydroisothiazolo[5,4-b]pyridine-5-carboxylate]	-36 mmHg	-93 mmHg	-137 mmHg	–
–	–	63.8 nM	CCOC(=O)C1=C(C)Nc2snc(CCN3CCN(c4ccc(F)cc4)CC3)c2C1c1cccc([N+](=O)[O-])c1 (centres unmarked) [If, ethyl 3-[2-(4-(4-fluorophenyl)-1-piperazinyl)ethyl]-6-methyl-4-(3-nitrophenyl)-4,7-dihyhdroisothiazolo[5,4-b]pyridine-5-carboxylate]	-47 mmHg	-54 mmHg	-102 mmHg	–
–	33 nM	–	CCOC(=O)C1=C(C)Nc2snc(CCN3CCN(c4ccccc4)CC3)c2C1c1cccc([N+](=O)[O-])c1 (centres unmarked) [Ie, ethyl 3-[2-(4-phenyl-1-piperazinyl)ethyl]-6-methyl-4-(3-nitrophenyl)-4,7-dihydroisodithiazolo[5,4-b]pyridine-5-carboxylate]	-41 mmHg	-51 mmHg	-101 mmHg	–
> 300 nM	–	–	CCOC(=O)C1=C(C)Nc2snc(CCN3CCN(c4ccccc4)CC3)c2C1c1cccc([N+](=O)[O-])c1 (single isomer, unassigned; (+)) [Ig, (+)-ethyl 3-[2-(4-phenyl-1-piperazinyl)ethyl]-6-methyl-4-(3-nitrophenyl)-4,7-dihydroisothiazolo[5,4-b]pyridine-5-carboxylate]	–	–	–	–
